Assay results published in publication PMC4948722 (Cancer research, 2011).

What was measured:
Test in all cases: kinase panel, […] compound, […] ATP
Format in all cases: biochemical
Settings in all cases: read-out: % inhibition at 1 μM
GCK = target: T1, GCK (Homo sapiens, UniProt Q12851)
T1 sequence (Q12851 1-820): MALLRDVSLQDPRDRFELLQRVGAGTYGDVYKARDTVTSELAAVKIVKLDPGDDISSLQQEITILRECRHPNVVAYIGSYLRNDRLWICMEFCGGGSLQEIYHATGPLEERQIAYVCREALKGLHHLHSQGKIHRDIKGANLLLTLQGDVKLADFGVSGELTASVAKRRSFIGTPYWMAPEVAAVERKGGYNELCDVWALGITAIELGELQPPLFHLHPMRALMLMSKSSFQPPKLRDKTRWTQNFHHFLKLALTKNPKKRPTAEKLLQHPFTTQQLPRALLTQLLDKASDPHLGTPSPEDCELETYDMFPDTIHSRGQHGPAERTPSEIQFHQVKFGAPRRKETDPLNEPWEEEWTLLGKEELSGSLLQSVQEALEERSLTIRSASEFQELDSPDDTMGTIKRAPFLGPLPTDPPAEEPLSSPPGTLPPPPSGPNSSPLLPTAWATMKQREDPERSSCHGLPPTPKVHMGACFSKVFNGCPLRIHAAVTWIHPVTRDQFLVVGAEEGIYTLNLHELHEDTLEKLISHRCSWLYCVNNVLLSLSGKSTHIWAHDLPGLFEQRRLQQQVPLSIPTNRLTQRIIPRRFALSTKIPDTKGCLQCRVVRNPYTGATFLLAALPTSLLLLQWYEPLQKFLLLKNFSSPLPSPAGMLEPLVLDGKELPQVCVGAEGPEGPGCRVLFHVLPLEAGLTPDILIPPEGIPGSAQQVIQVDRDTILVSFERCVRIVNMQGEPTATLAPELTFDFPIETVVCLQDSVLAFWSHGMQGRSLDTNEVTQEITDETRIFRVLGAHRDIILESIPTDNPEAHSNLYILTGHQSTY

MARK3 = MARK3 (Homo sapiens, UniProt P27448)
Sequence of MARK3 (P27448 whole entry): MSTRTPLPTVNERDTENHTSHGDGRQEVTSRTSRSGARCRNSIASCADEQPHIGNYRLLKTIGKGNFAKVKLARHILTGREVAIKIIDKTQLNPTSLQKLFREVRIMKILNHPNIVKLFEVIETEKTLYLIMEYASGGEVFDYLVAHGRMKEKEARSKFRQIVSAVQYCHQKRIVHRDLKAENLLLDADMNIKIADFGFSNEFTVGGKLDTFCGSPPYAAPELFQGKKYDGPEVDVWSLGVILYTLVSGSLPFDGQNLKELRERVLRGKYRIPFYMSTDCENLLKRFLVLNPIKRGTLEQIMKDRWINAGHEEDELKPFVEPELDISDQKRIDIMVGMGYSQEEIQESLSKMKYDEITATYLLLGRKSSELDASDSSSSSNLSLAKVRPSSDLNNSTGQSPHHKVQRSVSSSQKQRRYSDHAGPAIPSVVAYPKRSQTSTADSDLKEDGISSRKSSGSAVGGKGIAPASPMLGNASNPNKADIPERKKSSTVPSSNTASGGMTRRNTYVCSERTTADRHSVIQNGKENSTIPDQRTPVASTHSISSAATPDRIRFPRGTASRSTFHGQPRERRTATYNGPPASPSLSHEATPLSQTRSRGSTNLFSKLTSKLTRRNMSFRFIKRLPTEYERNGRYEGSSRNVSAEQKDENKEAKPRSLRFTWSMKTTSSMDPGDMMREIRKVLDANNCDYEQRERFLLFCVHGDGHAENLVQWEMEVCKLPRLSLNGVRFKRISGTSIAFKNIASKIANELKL

MLK1 = MLK1 (Homo sapiens, UniProt P80192)
Sequence of MLK1 (P80192 whole entry): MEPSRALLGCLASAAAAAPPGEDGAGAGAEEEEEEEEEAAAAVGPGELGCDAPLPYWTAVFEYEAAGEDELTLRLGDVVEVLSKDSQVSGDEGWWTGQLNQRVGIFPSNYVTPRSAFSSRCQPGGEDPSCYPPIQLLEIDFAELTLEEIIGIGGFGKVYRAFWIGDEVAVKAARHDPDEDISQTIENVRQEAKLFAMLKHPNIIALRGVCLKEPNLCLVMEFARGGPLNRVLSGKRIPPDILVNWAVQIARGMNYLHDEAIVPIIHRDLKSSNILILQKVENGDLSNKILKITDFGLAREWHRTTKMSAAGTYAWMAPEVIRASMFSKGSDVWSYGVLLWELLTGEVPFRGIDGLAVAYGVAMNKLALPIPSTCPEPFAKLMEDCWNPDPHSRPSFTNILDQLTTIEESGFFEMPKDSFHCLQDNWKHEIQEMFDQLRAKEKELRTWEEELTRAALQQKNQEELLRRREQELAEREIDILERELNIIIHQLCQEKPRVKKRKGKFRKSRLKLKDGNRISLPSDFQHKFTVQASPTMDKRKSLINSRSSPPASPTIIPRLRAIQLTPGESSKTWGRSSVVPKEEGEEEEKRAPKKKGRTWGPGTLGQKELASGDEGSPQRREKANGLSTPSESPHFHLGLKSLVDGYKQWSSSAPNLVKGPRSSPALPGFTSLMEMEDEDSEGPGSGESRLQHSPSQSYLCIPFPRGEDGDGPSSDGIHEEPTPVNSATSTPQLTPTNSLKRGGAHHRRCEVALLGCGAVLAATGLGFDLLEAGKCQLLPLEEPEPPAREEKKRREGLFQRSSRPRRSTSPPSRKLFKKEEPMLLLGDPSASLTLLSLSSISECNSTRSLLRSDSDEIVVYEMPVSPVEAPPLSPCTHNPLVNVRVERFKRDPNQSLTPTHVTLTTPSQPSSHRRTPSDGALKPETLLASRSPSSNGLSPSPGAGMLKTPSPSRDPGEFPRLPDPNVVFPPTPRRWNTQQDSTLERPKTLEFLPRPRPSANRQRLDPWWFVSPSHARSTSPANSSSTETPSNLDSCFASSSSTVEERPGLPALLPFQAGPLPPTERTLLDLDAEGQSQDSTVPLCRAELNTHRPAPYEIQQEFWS

Measured: inhibition at 1 µM

COc1cc2nc(-c3cc(F)ccc3O)nc(N[C@@H]3CNC[C@H]3C(C)(C)O)c2cc1OC [CCT241533]
> 80%: all assays above
